Data on 21 molecules can be found in patent publication US20230011571A1, “SMALL MOLECULE FURIN INHIBITORS FOR TREATING INFECTIOUS DISEASES” (BP Asset V, Inc., priority 2019, published 2023).

What all share (type): cell-based
Test [1] relates to Chikungunya virus (CHIKV). Kind of test: microbe, parasite or virus in culture. The settings on record: Chikungunya virus, Vero, 48 h, read-out: Percent viral inhibition CHKV.
Another test concerns dengue virus (DENV). The test is described as follows: microbe, parasite or virus in culture. The settings on record: Dengue virus, Vero, 120 h, read-out: Percent viral inhibition DENY.
For another test, the system named is Marburg virus (MARV). The test is described as follows: organism not typed. The settings on record: Vero, 72 h, read-out: Percent viral inhibition MARV.

Counter-ions that a name gives are not always drawn.

As usually defined, the inhibition is the change of the read-out against control, counted positive when it falls. As for `CN1CCN(c2ncc(Oc3cc(CN4CCC(CCC(=O)O)CC4)cc(-c4cc(Cl)cc(Cl)c4)n3)cn2)CC1` [Example 130, 3-(1-((2-(3,5-dichlorophenyl)-6-((2-(4-methylpiperazin-1-yl)pyrimidin-5-yl)oxy)pyridin-4-yl)methyl)piperidin-4-yl)propanoic acid], the inhibition at 1 µM in test [1] was determined as 28.4%; in the test with dengue virus (DENV), 33%; in the test on Marburg virus (MARV), 33.3%.
In the same order, the values of `CN1CCN(c2ncc(Oc3cc(CN4CCC(OC(C)(C)C(=O)O)CC4)cc(-c4cc(Cl)cc(Cl)c4)n3)cn2)CC1` [Example 225, 2-((1-((2-(3,5-dichlorophenyl)-6-((2-(4-methylpiperazin-1-yl)pyrimidin-5-yl)oxy)pyridin-4-yl)methyl)piperidin-4-yl)oxy)-2-methylpropanoic acid] are 24.2%, 33.3% and 52.3%.
Take `CC(=O)NCC1CCN(Cc2cc(Oc3ccc(N4CCN(CCS(C)(=O)=O)CC4)nc3)cc(-c3cc(Cl)cc(Cl)c3)c2)CC1` [Example 293, N-((1-((3′,5′-dichloro-5-((6-(4-(2-(methylsulfonyl)ethyl)piperazin-1-yl)pyridin-3-yl)oxy)-[1,1′-biphenyl]-3-yl)methyl)piperidin-4-yl)methyl)acetamide]: the inhibition at 1 µM (in test [1]; in the test on dengue virus (DENV); with Marburg virus (MARV)) was 0% each time.
As to `CN1C[C@@H]2C[C@H]1CN2c1ncc(Oc2cc(CN3CCC(CC(=O)O)CC3)cc(-c3cc(Cl)cc(Cl)c3)n2)cn1` [Example 231, 2-(1-((2-(3,5-dichlorophenyl)-6-((2-((1S,4S)-5-methyl-2,5-diazabicyclo[2.2.1]heptan-2-yl)pyrimidin-5-yl)oxy)pyridin-4-yl)methyl)piperidin-4-yl)acetic acid], the inhibition at 1 µM in test [1] was determined as 25.8%; in the test on dengue virus (DENV), 44.2%; in the test with Marburg virus (MARV), 66.6%.
Regarding `CS(=O)(=O)CCCN1CCN(c2ccc(Oc3cc(CN4CCC(CC(=O)O)CC4)cc(-c4cc(Cl)cc(Cl)c4)n3)cn2)CC1` [Example 243, 2-(1-((2-(3,5-dichlorophenyl)-6-((6-(4-(3-(methylsulfonyl)propyl)piperazin-1-yl)pyridin-3-yl)oxy)pyridin-4-yl)methyl)piperidin-4-yl)acetic acid], the inhibition at 1 µM in test [1] worked out at 14.6%; in the test on dengue virus (DENV) it was 37.9%; in the test with Marburg virus (MARV) it was 46.8%.
Consider `C[C@@H](CC1CCN(Cc2cc(Oc3cnc(N4CCN(C)CC4)nc3)nc(-c3cc(Cl)cc(Cl)c3)c2)CC1)C(=O)O` [Example 134, (S)-3-(1-((2-(3,5-dichlorophenyl)-6-((2-(4-methylpiperazin-1-yl)pyrimidin-5-yl)oxy)pyridin-4-yl)methyl)piperidin-4-yl)-2-methylpropanoic acid], for which the inhibition at 1 µM in test [1] is 0%; in the test on dengue virus (DENV), 43.2%; with Marburg virus (MARV), 45.1%.
Take `CN1CCN(c2ncc(Oc3cc(CN4CCC(CP(C)(C)=O)CC4)cc(-c4cc(Cl)cc(Cl)c4)n3)cn2)CC1` [Example 320, ((1-((2-(3,5-dichlorophenyl)-6-((2-(4-methylpiperazin-1-yl)pyrimidin-5-yl)oxy)pyridin-4-yl)methyl)piperidin-4-yl)methyl)dimethylphosphineoxide]: the inhibition at 1 µM in test [1] is 17.5%; in the test with dengue virus (DENV), 15.3%; in the test with Marburg virus (MARV), 52.5%.
Regarding `CN1CCN(c2ccc(Oc3cc(CN4CCC(CC(=O)O)CC4)cc(-c4cc(Cl)cc(Cl)c4)n3)nn2)CC1` [Example 359, 2-(1-((2-(3,5-dichlorophenyl)-6-((6-(4-methylpiperazin-1-yl)pyridazin-3-yl)oxy)pyridin-4-yl)methyl)piperidin-4-yl)acetic acid], the figures for the inhibition at 1 µM (in test [1]; with dengue virus (DENV); in the test on Marburg virus (MARV)) were 28.9%, 45.3% and 62%, respectively.
In the same order, the values of `CC(=O)NCC1CCN(Cc2cc(Oc3cnc(N4CCN(CCS(C)(=O)=O)CC4)nc3)nc(-c3cc(Cl)cc(Cl)c3)c2)CC1` [Example 285, N-((1-((2-(3,5-dichlorophenyl)-6-((2-(4-(2-(methylsulfonyl)ethyl)piperazin-1-yl)pyrimidin-5-yl)oxy)pyridin-4-yl)methyl)piperidin-4-yl)methyl)acetamide] are 35.3%, 22.9% and 80.4%.
For `CN1CCN(c2ncc(Oc3cc(CN4CCO[C@H](CO)CC4)cc(-c4cc(Cl)cc(Cl)c4)n3)cn2)CC1` [Example 330, (S)-(4-((2-(3,5-dichlorophenyl)-6-((2-(4-methylpiperazin-1-yl)pyrimidin-5-yl)oxy)pyridin-4-yl)methyl)-1,4-oxazepan-7-yl)methanol] the same measures were 24.6%, 26.4% and 58.7%.
Turning to `COC(=O)NCC1CCN(Cc2cc(Oc3cnc(N4CCNCC4)nc3)nc(-c3cc(F)cc(Cl)c3)c2)CC1` [Example 275, methyl((1-((2-(3-chloro-5-fluorophenyl)-6-((2-(piperazin-1-yl)pyrimidin-5-yl)oxy)pyridin-4-yl)methyl)piperidin-4-yl)methyl)carbamate], the inhibition at 1 µM (in test [1]; in the test with dengue virus (DENV); in the test on Marburg virus (MARV)) was 0% each time.
Turning to `CC(=O)NCC1CCN(Cc2cc(Oc3ccc(N4CCN(CCO)CC4)nc3)nc(-c3cc(Cl)cc(Cl)c3)c2)CC1` [Example 180, N-((1-((2-(3,5-dichlorophenyl)-6-((6-(4-(2-hydroxyethyl)piperazin-1-yl)pyridin-3-yl)oxy)pyridin-4-yl)methyl)piperidin-4-yl)methyl)acetamide], the inhibition at 1 µM in test [1] worked out at 0%; in the test on dengue virus (DENV), 10.4%; in the test with Marburg virus (MARV), 25.4%.
`C[C@@H](O)CN1CCN(c2ncc(Oc3cc(CN4CCC(OCC(=O)O)CC4)cc(-c4cc(Cl)cc(Cl)c4)n3)cn2)CC1` [Example 317, (R)-2-((1-((2-(3,5-dichlorophenyl)-6-((2-(4-(2-hydroxypropyl)piperazin-1-yl)pyrimidin-5-yl)oxy)pyridin-4-yl)methyl)piperidin-4-yl)oxy)acetic acid]: the results for the inhibition at 1 µM (in test [1]; in the test with dengue virus (DENV); in the test with Marburg virus (MARV)) were 14.8%, 20.2% and 53.6%, respectively.
For `CC(=O)NCC1CCN(Cc2cc(-c3cc(Cl)cc(Cl)c3)nc(Oc3ccc(N4CCNCC4)nc3)n2)CC1` [Example 90, N-((1-((6-(3,5-dichlorophenyl)-2-((6-(piperazin-1-yl)pyridin-3-yl)oxy)pyrimidin-4-yl)methyl)piperidin-4-yl)methyl)acetamide] the same measures were 44.2%, 54.9% and 75.5%.
As to `CC(=O)NCC1CCN(Cc2cc(Oc3ccc(N4CCN(CCCS(C)(=O)=O)CC4)nc3)nc(-c3cc(Cl)cc(Cl)c3)c2)CC1` [Example 251, N-((1-((2-(3,5-dichlorophenyl)-6-((6-(4-(3-(methylsulfonyl)propyl)piperazin-1-yl)pyridin-3-yl)oxy)pyridin-4-yl)methyl)piperidin-4-yl)methyl)acetamide], the inhibition at 1 µM in test [1] was 0%; in the test on dengue virus (DENV) it was 45.5%; in the test with Marburg virus (MARV) it was 38.9%.
In the same order, the values of `CN(C)C1CCN(c2ncc(Oc3cc(CN4CCC(CC(=O)O)CC4)cc(-c4cc(Cl)cc(Cl)c4)n3)cn2)CC1` [Example 227, 2-(1-((2-(3,5-dichlorophenyl)-6-((2-(4-(dimethylamino)piperidin-1-yl)pyrimidin-5-yl)oxy)pyridin-4-yl)methyl)piperidin-4-yl)acetic acid] are 40.5%, 54% and 54.5%.
As for `CN1CCCN(c2ccc(Oc3cc(CN4CCC(CC(=O)O)CC4)cc(-c4cc(Cl)cc(Cl)c4)n3)nn2)CC1` [Example 356, 2-(1-((2-(3,5-dichlorophenyl)-6-((6-(4-methyl-1,4-diazepan-1-yl)pyridazin-3-yl)oxy)pyridin-4-yl)methyl)piperidin-4-yl)acetic acid], the inhibition at 1 µM in test [1] stood at 30.8%; in the test on dengue virus (DENV) it was 49.3%; in the test with Marburg virus (MARV) it was 54.3%.
Take `CC(=O)NCC1CCN(Cc2cc(Oc3ccc(N4CCN(CCC(=O)O)[C@@H](C)C4)nc3)nc(-c3cc(Cl)cc(Cl)c3)c2)CC1` [Example 186]: the inhibition at 1 µM in test [1] came to 19.9%; in the test with dengue virus (DENV), 53.9%; in the test with Marburg virus (MARV) it was 30.6%.
In the same order, the values of `CCN1C[C@@H]2C[C@H]1CN2c1ccc(Oc2cc(CN3CCC(CC(=O)O)CC3)cc(-c3cc(Cl)cc(Cl)c3)n2)nn1` [Example 366, 2-(1-((2-(3,5-dichlorophenyl)-6-((6-((1S,4S)-5-ethyl-2,5-diazabicyclo[2.2.1]heptan-2-yl)pyridazin-3-yl)oxy)pyridin-4-yl)methyl)piperidin-4-yl)acetic acid] are 6.17%, 48.5% and 23.1%.
For `CC(=O)NCC1CCN(Cc2cc(Oc3ccc(N4CCN(CCC(=O)O)CC4)nc3)nc(-c3cc(Cl)cc(Cl)c3)c2)CC1` [Example 11, 3-(4-(5-((4-((4-(Acetamidomethyl)piperidin-1-yl)methyl)-6-(3,5-dichlorophenyl)pyridin-2-yl)oxy)pyridin-2-yl)piperazin-1-yl)propanoic acid, 4 hydrochloride], the inhibition at 1 µM in test [1] was 17.9%; in the test on dengue virus (DENV) it was 30.2%; in the test on Marburg virus (MARV), 41.6%.
For `CN1CCCN(c2ncc(Oc3cc(CN4CCC(CC(=O)O)CC4)cc(-c4cc(Cl)cc(Cl)c4)n3)cn2)CC1` [Example 126, 2-(1-((2-(3,5-dichlorophenyl)-6-((2-(4-methyl-1,4-diazepan-1-yl)pyrimidin-5-yl)oxy)pyridin-4-yl)methyl)piperidin-4-yl)acetic acid], the inhibition at 1 µM turned out to be 23.6% in test [1], 8.34% with dengue virus (DENV) and 38.5% with Marburg virus (MARV).
